According to PMC5853285, “Necessity of Bumped Kinase Inhibitor Gastrointestinal Exposure in Treating Cryptosporidium Infection” (The Journal of Infectious Diseases, 2017):
In brackets after ≈: the same amount, converted by molar mass.

Assays:
Cryptosporidium parvum [1] = experiment: C. parvum growth inhibition by BKIs in vitro; type: cell-based; conditions: read-out: BKI EC50 for Inhibition of C. parvum Proliferation
Excerpt: (§1) Information regarding the C. parvum oocysts, generation of BKIs, CpCDPK1 enzyme inhibition, C. parvum growth inhibition by BKIs, plasma protein binding, and neonatal mouse model of C. parvum infection has been described in detail elsewhere. Information on BKI solubility and permeability, Gastroplus modeling, the interferon (IFN) γ knockout (KO) mouse model, and measurement of BKI levels in the GI tract of mice is described in the Supplementary Material. All animal experiments were approved by the Institutional Animal Care and Use Committees at the participating universities (University of Washington, University of Georgia, and University of Arizona).

Cryptosporidium parvum [2] = experiment: Neonatal mouse model of C. parvum infection; type: in vivo; parameters: concentration or dose not given beside the values
Excerpt: as §1

Plasma protein binding = type: in vitro ADME
Excerpt: as §1

[3] = Single oral dose pharmacokinetics of BKIs in mice (plasma); type: in vivo; conditions: mouse plasma
Procedure: Mouse oral PK studies were performed as previously described. Briefly, three female BALB/c mice (10 -12 weeks old) were used in each group. With the exception of 1556, each group of mice received an individual BKI at a dose of 10 mg/kg body weight by oral gavage in 200 μL 70% Tween 80/30% ethanol diluted in saline. The only difference for mice administered 1556 was that the group received a dose of 25 mg/kg. Blood samples were taken by tail bleeding into heparinized tubes at designated time points and centrifuged to obtain plasma. The samples were frozen at -20°C. The plasma samples were prepared by adding acetonitrile + 0.1% formic acid with an internal standard. Calibration curves were generated by spiking standards of each BKI into mouse serum and preparing the standards along with test samples. The PK calculations of Cmax and AUC were performed using Phoenix WinNonlin software (Certara, Princeton, NJ).

Cryptosporidium = test system: Cryptosporidium; parameters: method as in PMID 12423984; conditions: cited from earlier work
[4] = BKI aqueous solubility at pH 2 and 6.5; type: physicochemical; conditions: second of two values; measured at pH 2 and 6.5
Procedure: Briefly, 1 μL of 20 mM dimethyl sulfoxide (DMSO) stock was added to 199 μL of buffer. Samples were vortexed and allowed to incubate at 25 °C overnight. The next day, each sample was centrifuged at 13800 rpm for 40 minutes at 25 °C. The supernatant was collected and 100 μL of the supernatant was added to 100 μL acetonitrile. Solutions were analyzed by HPLC/UV and were quantified based on a five-point calibration curve for each analyte.

Cryptosporidium parvum [5] = experiment: IFN-γ KO adult mouse model of C. parvum infection (Nluc oocyst shedding); type: in vivo; conditions: IFN-γ KO mice, 6 mg/kg once daily oral for 5 days
Excerpt: The ability to predict in vivo efficacy with BKI ascending colon concentrations was further evaluated in an adult model of C. parvum infection. Female IFN-γ KO mice were infected with transgenic C. parvum strain UGA1 expressing nanoluciferase (Nluc), and the infection was allowed to proceed for 3–5 days. […] To account for daily growth of parasites over the course of the study, the observed RLUs in the vehicle-treated mice were used to simulate the growth of the parasite over the course of the experiment (Figure 4A). On each day of the study, the simulated parasite level was based on both the growth of the parasite and the predicted inhibition by BKI [[22–24]].
The efficacy of BKIs in an adult mouse model of C. parvum infection was tested as previously described. Briefly, all female IFN-γ KO mice (B6.129S7-Ifngtm1Ts/J, Jackson Laboratories), were infected by oral gavage (PO) with 10,000 Nluc expressing C. parvum oocysts in 100 μL DPBS for studies with 1534. For all other studies, mice were infected PO with 1,000 Nlucexpressing C. parvum oocysts. Vehicle control groups and BKI treated groups each contained at least three mice. […] The stool samples were checked for luminescence on the day of collection and RLU readings were standardized to fecal sample weights. […]

Row | SMILES | EC50 (Cryptosporidium parvum [1]) [µM] | Reduction in Neonatal Mouse C. parvum Infection (Cryptosporidium parvum [2]) [%] | Plasma Protein Binding (Plasma protein binding) [%] | AUC ([3]; single oral dose 10 mg/kg) [µmol·min/L] | Cmax ([3]; single oral dose 10 mg/kg) [nM] | efficacy (Cryptosporidium; human immunodeficiency virus–infected individuals) | response rate (Cryptosporidium; malnourished children with cryptosporidiosis) [%] | Solubility (second value) [4] [µM] | in vivo efficacy (oocyst shedding, RLU) (Cryptosporidium parvum [5]) | AUC ([3]; single oral dose 25 mg/kg) [µmol·min/L] | Cmax ([3]; single oral dose 25 mg/kg) [nM]
1 | CCOc1ccc2cc(-c3nn(CC4CCN(C)CC4)c4ncnc(N)c34)ccc2c1 [BKI 1294] | 2.7 | 56 | 84 | 430 | 800 |  |  |  |  |  | 
2 | CC(=O)Oc1ccccc1C(=O)Nc1ncc([N+](=O)[O-])s1 [nitazoxanide] |  |  |  |  |  | no efficacy | 30 |  |  |  | 
3 | Nc1ncnc2c1c(-c1ccc3nc(OC4CC4)ccc3c1)nn2CC1CCOCC1 [BKI 1557] | 5.5 | 33 | 84 | 67 | 900 |  |  | 17 (≈ 7.08 µg/mL) |  |  | 
4 | CC(C)Cn1nc(-c2ccc3cc(OC4CC4)ccc3c2)c2c(N)ncnc21 [BKI 1534] | 2.2 | 61 | 99 | 58 | 200 |  |  | 2 (≈ 0.747 µg/mL) | lack of BKI efficacy |  | 
5 | CC(C)Cn1nc(-c2ccc3nc(OC4CC4)ccc3c2)c2c(N)ncnc21 [BKI 1556] | 3.2 | 61 | 86 |  |  |  |  | 7 (≈ 2.62 µg/mL) |  | 2082 | 7000
6 | CCOc1ccc2cc(-c3nn(CC4CCN(C)CC4)c4ncnc(N)c34)ccc2n1 [BKI 1369] | 2.3 | 70 | 37 |  | 300 |  |  |  |  |  | 
7 | CC(C)(O)Cn1cc(-c2ccc3nc(OC4CC4)ccc3c2)c2c(N)ncnc21 [BKI 1649] | 2.3 | 56 | 90 | 6416 | 4900 |  |  | 83 (≈ 32.3 µg/mL) |  |  | 
8 | CCOc1ccc2cc(-c3nn(CC4CCNCC4)c4ncnc(N)c34)ccc2n1 [BKI 1318] | 3.2 | 65 | 55 | 2208 | 6500 |  |  |  |  |  | 
